This experiment relates to MX-1 breast xenograft, nude mice, tumor weight T/C. Briefly: NCI In Vivo Anticancer Drug Screen. Data for tumor model Human Mammary Carcinoma MX-1 Xenograft (intrarenal inoculation) in NU/NU Swiss (nude) mice. Particulars: endpoint: mean tumor weight change, higher = larger tumour. In short, it runs like this: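 Antitumour effect measured in vivo against vehicle controls, expressed as T/C.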
For orientation: Xenograft models place foreign cells or tissue in a host animal.

Where [1] appears, read: dose: 300.0 mg/kg/injection, schedule: Q04DX003 (sc), vehicle: Klucel (hydroxypropylcellulose) (HPC).
[2] abbreviates: dose: 600.0 mg/kg/injection, schedule: Q04DX003 (sc), vehicle: Klucel (hydroxypropylcellulose) (HPC).
The mark [3] stands for this setting: dose: 1200.0 mg/kg/injection, schedule: Q04DX003 (sc), vehicle: Klucel (hydroxypropylcellulose) (HPC).
The mark [4] stands for this setting: dose: 2400.0 mg/kg/injection, schedule: Q04DX003 (sc), vehicle: Klucel (hydroxypropylcellulose) (HPC).
[5] abbreviates: dose: 100.0 mg/kg/injection, schedule: Q01DX010 (sc), vehicle: saline.
[6] abbreviates: dose: 300.0 mg/kg/injection, schedule: Q04DX003 (sc), vehicle: saline with Tween-80.
Setting [7] is: dose: 600.0 mg/kg/injection, schedule: Q04DX003 (sc), vehicle: saline with Tween-80.
Where [8] appears, read: dose: 1200.0 mg/kg/injection, schedule: Q04DX003 (sc), vehicle: saline with Tween-80.

Several values for one entry are separate records, joined by “and”; a condition that tells them apart may be missing. Identical values can stand only once. Results filed as inconclusive are left out. *1 amine or outer side, *2 acyl side, *3 side chain or, on linkers, in order; H or OH if unused. Where a SMILES comes first, the peptide text is derived from it. [ ]: non-standard residue; d: D form. The star is where a group is joined. X2 = CCC(=O)CC1CC(C)CC(C(=O)[*:2])N1[*:1]; X1 = CCCCCCCCC(C)C(=O)*; Aib = CC(C)(N)C(=O)O; X3 = CC(CN(C)CCO)N*

With `COC1/C=C/C=C(/C)Cc2cc(O)c(Cl)c(c2)N(C)C(=O)CC(OC(=O)C(C)C)C2(C)OC2C(C)C2CC1(O)NC(=O)O2` (configuration not stated), the T/C runs as follows: (dose: 1.0 mg/kg/injection, schedule: Q04DX003 (sc), vehicle: saline + alcohol) 95 % of control; (dose: 2.0 mg/kg/injection, schedule: Q04DX003 (sc), vehicle: saline + alcohol) 78 % of control and 87 % of control (2×); (dose: 16.0 mg/kg/injection, schedule: Q04DX003 (sc), vehicle: saline + alcohol) 3 % of control and -8 % of control.
With `COc1cc(NCc2ccc3nc(N)nc(N)c3c2C)cc(OC)c1OC`, the T/C by setting is: (dose: 1.25 mg/kg/injection, schedule: Q01DX010 (sc), vehicle: sodium bicarbonate) 70 % of control; (dose: 2.5 mg/kg/injection, schedule: Q01DX010 (sc), vehicle: sodium bicarbonate) 46 % of control; (dose: 20.0 mg/kg/injection, schedule: Q01DX010 (sc), vehicle: sodium bicarbonate) 97 % of control; (dose: 75.0 mg/kg/injection, schedule: Q04DX003 (sc), vehicle: water) 115 % of control; (dose: 150.0 mg/kg/injection, schedule: Q04DX003 (sc), vehicle: water) 108 % of control; (dose: 300.0 mg/kg/injection, schedule: Q04DX003 (sc), vehicle: water) 112 % of control.
`O=C(O)C1(NO)CCCCC1`: the T/C by setting is: (dose: 200.0 mg/kg/injection, schedule: Q04DX003 (sc), vehicle: Klucel (hydroxypropylcellulose) (HPC)) 110 % of control; (dose: 400.0 mg/kg/injection, schedule: Q04DX003 (sc), vehicle: Klucel (hydroxypropylcellulose) (HPC)) 100 % of control; (dose: 800.0 mg/kg/injection, schedule: Q04DX003 (sc), vehicle: Klucel (hydroxypropylcellulose) (HPC)) 123 % of control; (dose: 1600.0 mg/kg/injection, schedule: Q04DX003 (sc), vehicle: Klucel (hydroxypropylcellulose) (HPC)) 64 % of control.
`CCCCCC(O)C1C(=O)OC(C)C(O)/C=C/C=C/C=C/C=C\C=C(\C)C(O)CC(O)CC(O)CC(O)CC(O)CC(O)CC1O` (configuration not stated): the T/C is 84 % of control (dose: 300.0 mg/kg/injection, schedule: Q04DX003 (sc), vehicle: distilled water + alcohol); 107 % of control (dose: 600.0 mg/kg/injection, schedule: Q04DX003 (sc), vehicle: distilled water + alcohol); 69 % of control (dose: 1200.0 mg/kg/injection, schedule: Q04DX003 (sc), vehicle: distilled water + alcohol).
For `O=C(O)C1Cc2nc[nH]c2CN1CO` (configuration not stated), the T/C was 113 % of control (dose: 100.0 mg/kg/injection, schedule: Q04DX003 (sc), vehicle: saline with Tween-80); 113 % of control (dose: 200.0 mg/kg/injection, schedule: Q04DX003 (sc), vehicle: saline with Tween-80); 80 % of control (dose: 400.0 mg/kg/injection, schedule: Q04DX003 (sc), vehicle: saline with Tween-80); 99 % of control (dose: 800.0 mg/kg/injection, schedule: Q04DX003 (sc), vehicle: saline with Tween-80).
With `CNC(=O)OCc1c(COC(=O)NC)c(-c2ccc(Cl)c(Cl)c2)n2c1Cc1ccccc1C2`, the T/C runs as follows: (dose: 300.0 mg/kg/injection, schedule: Q04DX003 (sc), vehicle: distilled water + Tween-80) 64 % of control; (dose: 600.0 mg/kg/injection, schedule: Q04DX003 (sc), vehicle: distilled water + Tween-80) 70 % of control; (dose: 1200.0 mg/kg/injection, schedule: Q04DX003 (sc), vehicle: distilled water + Tween-80) 103 % of control; (dose: 2400.0 mg/kg/injection, schedule: Q04DX003 (sc), vehicle: distilled water + Tween-80) 36 % of control.
In the case of `CCCCCCCCCCCCCCCCCCOCC(COP(=O)([O-])OCC[N+](C)(C)C)OC` (configuration not stated), the T/C (dose: 150.0 mg/kg/injection, schedule: Q04DX003 (sc), vehicle: saline) was 120 % of control.
Regarding `CCOC(=O)CNC(=O)Sc1ccc(C(C)(C)C)cc1`, the T/C reads like this: under setting [1], 123 % of control; under setting [2], 88 % of control; under setting [3], 81 % of control; under setting [4], 77 % of control.
As to `O=S(=O)(O)c1cc(N=C=S)ccc1/C=C/c1ccc(N=C=S)cc1S(=O)(=O)O`, the T/C (dose: 150.0 mg/kg/injection, schedule: Q04DX003 (ip), vehicle: saline) is 47 % of control.
Consider `CCCC(=O)O`, for which, under setting [5], the T/C is 104 % of control.
For the molecule `COc1cc2cc3cc4cc(OC)c(OC)cc4c(C)[n+]3cc2cc1OC` (tested in a mixture with another compound), the T/C (dose: 1200.0 mg/kg/injection, schedule: Q04DX003 (sc), vehicle: suspension in saline) was 61 % of control and the T/C (dose: 2400.0 mg/kg/injection, schedule: Q04DX003 (sc), vehicle: suspension in saline) was 84 % of control.
Consider `O=[N+]([O-])/C=C\c1ccc2c(c1)OCO2`, for which the T/C (dose: 50.0 mg/kg/injection, schedule: Q01DX010 (sc), vehicle: Klucel (hydroxypropylcellulose) (HPC)) was 214 % of control; the T/C (dose: 100.0 mg/kg/injection, schedule: Q01DX010 (sc), vehicle: Klucel (hydroxypropylcellulose) (HPC)) was 91 % of control; the T/C (dose: 400.0 mg/kg/injection, schedule: Q01DX010 (sc), vehicle: Klucel (hydroxypropylcellulose) (HPC)) was 86 % of control.
As to `O=C(O)CC(=O)O.[NH-]CC[NH-].[Pt+2]`, the T/C is -100 % of control (dose: 12.5 mg/kg/injection, schedule: Q01DX010 (sc), vehicle: dextrose) and -100 % of control (dose: 100.0 mg/kg/injection, schedule: Q01DX010 (sc), vehicle: dextrose).
Consider `CC1(C)OC(=O)N(CO)C1=O`, for which the T/C is 45 % of control (dose: 25.0 mg/kg/injection, schedule: Q01DX010 (sc), vehicle: saline); 31 % of control (dose: 50.0 mg/kg/injection, schedule: Q01DX010 (sc), vehicle: saline); 48 % of control under setting [5]; 114 % of control (dose: 200.0 mg/kg/injection, schedule: Q01DX010 (sc), vehicle: saline).
As for `Cn1cc(C2NC(=O)c3ccccc3N2)c2ccccc21` (configuration not stated), the T/C was 113 % of control (dose: 150.0 mg/kg/injection, schedule: Q04DX003 (sc), vehicle: Klucel (hydroxypropylcellulose) (HPC)) and 108 % of control under setting [3].
Turning to `NC(=S)N/N=C/c1ccc(OC(=O)COc2ccc(Cl)cc2)cn1`, the T/C runs as follows: under setting [6], 112 % of control; under setting [7], 88 % of control; under setting [8], 92 % of control.
Turning to `COc1c(C=O)c2c(c(OC)c1OC)-c1ccc(OC)c(=O)cc1[C@@H](NC(C)=O)CC2`, the T/C (dose: 18.75 mg/kg/injection, schedule: Q04DX003 (sc), vehicle: Klucel (hydroxypropylcellulose) (HPC)) was 20 % of control and the T/C (dose: 37.5 mg/kg/injection, schedule: Q04DX003 (sc), vehicle: Klucel (hydroxypropylcellulose) (HPC)) was 11 % of control.
Consider `N#CCCN(C(=S)Nc1cccc(C(F)(F)F)c1)C1CCCCC1`, for which the T/C under setting [1] is 89 % of control and the T/C under setting [4] is 106 % of control.
Turning to `CCCCCC#CC1OC12CCCCC2` (configuration not stated), the T/C reads like this: under setting [6], 83 % of control; under setting [7], 101 % of control; under setting [8], 83 % of control; (dose: 2400.0 mg/kg/injection, schedule: Q04DX003 (sc), vehicle: saline with Tween-80) 78 % of control.
Turning to `CC(C)(C)C1CCCCC1`, the T/C by setting is: under setting [1], 101 % of control; under setting [2], 89 % of control; under setting [3], 75 % of control; under setting [4], 65 % of control.
In the case of `COc1ccc(OC)c(/C=C/c2ccnc3ccccc23)c1`, the T/C (dose: 150.0 mg/kg/injection, schedule: Q04DX003 (sc), vehicle: saline with Tween-80) was 96 % of control; the T/C under setting [6] is 91 % of control; the T/C under setting [7] was 96 % of control; the T/C under setting [8] was 96 % of control.
`S=P(N1CC1)(N1CC1)N1CC1`: under “dose: 4.0 mg/kg/injection, schedule: Q01DX010 (sc), vehicle: saline”, the T/C is -94 % of control.
`CCCCCCCCC(C)C(=O)N1CCCC1C(=O)N1C(CC(=O)CC)CC(C)CC1C(=O)NC(C)C(=O)NC(C)(C)C(=O)NC(C)(C)C(=O)NC(C(=O)NC(C)C(=O)NC(C)(C)C(=O)NC(C)(C)C(=O)NC(C)CN(C)CCO)C(C)CC` (configuration not stated) (X1-P[X2]A[Aib][Aib]IA[Aib][Aib]-X3; configuration not given here): the T/C was 105 % of control (dose: 1.25 mg/kg/injection, schedule: Q04DX003 (sc), vehicle: Klucel (hydroxypropylcellulose) (HPC)) and 113 % of control (dose: 2.5 mg/kg/injection, schedule: Q04DX003 (sc), vehicle: Klucel (hydroxypropylcellulose) (HPC)).
With `OC1CCCC2CCC[N-]C12.OC1CCCC2CCC[N-]C12.[Mn+2]` (configuration not stated), the T/C is 87 % of control under setting [1], 108 % of control under setting [2], 65 % of control under setting [3] and 73 % of control under setting [4].
`C[C@H](CCC[C@H](C)OS(=O)(=O)c1ccccc1)OS(=O)(=O)c1ccccc1`: the T/C was 92 % of control under setting [6] and 48 % of control under setting [7].

The record behind these values is PubChem BioAssay AID296 (DTP/NCI, 2004).
